Measurements taken from patent US20230310540A1, “PEPTIDE COMPOSITIONS AND METHODS OF USE THEREOF” (priority 2020, published 2023).
In brackets after ≈: the same amount, converted by molar mass. Where two headings read alike, the source gives them in different places. Bridge positions count the residues as written; N and C are the ends. Square brackets hold non-standard residues; d marks the D form. Peptide text beside a SMILES is read from it. βAla = NCCC(=O)O

Legend:
human RBCs = experiment: Hemolysis of human RBCs; assay type: cell-based
Experimental: (§1) Peptide variants of D-CONGA (SEQ ID NO: 1) were tested for activity against E. coli, K. pneumoniae, and S. aureus. Minimum Inhibitory Concentrations (MIC) were measured in 96-well plates by broth dilution. Peptides were serially diluted in buffer or in buffer containing 1×10^9 human RBC/ml. Following 1 hr. incubation, bacteria in growth media were added and the plates were incubated overnight at 37° C. Sterilized, wells were identified to determine MIC. Hemolysis was measured by incubating 1×10^8 human RBCs with serially diluted peptide for 30 minutes followed by centrifugation of the cells and measurements of the released hemoglobin in the supernatant by absorbance at 410 nm. The value for 100% hemolysis was established by treatment with the detergent Triton-X100. Toxicity was measured by incubating serially diluted peptide with WI38 human fibroblast cells in the presence of SYTOX Green, a DNA binding dye that reports on cell death by membrane permeabilization. The peptide concentration that gives 50% cytotoxicity by relative SYTOX Green fluorescence, is denoted EC50.
Peptide was serially diluted in PBS starting at a concentration of 100 μM. The final volume of peptide in each well was 50 μL. To each well, 50 μL of RBCs in PBS at 2×10^8 cells/mL was added. As a positive lysis control, 1% triton was used. The mixtures were incubated at 37° C. for 1 hour, after which they were centrifuged at 1000 g for 5 minutes. After centrifugation, 10 μL of supernatant was transferred to 90 μL of DI H2O in a fresh 96-well plate. The absorbance of released hemoglobin at 410 nm was recorded and the fractional hemolysis was calculated based on the 100% and 0% lysis controls.
(§2) MIC values were reported in μM peptide against gram-negative E. coli (EC), P. aeruginosa (PA), and gram-positive S. aureus (SA). The two columns under each organism are for assays performed in the absence (−) and presence (+) of 1×10^9 human RBC/ml. “>30” means that sterilization was not observed at 30 μM, the highest concentration tested. The column marked “hemolysis” is the fractional hemolysis of 1×10^8 human RBC/ml at 100 μM peptide determined from measurements of serially diluted peptide, starting from 100 μM. The column marked “EC 50” contains the concentration of peptide that kills 50% of WI-38 human fibroblast cells assayed by entry of SYTOX™ Green DNA binding dye.

[1] = system: WI-38 human fibroblast cells; experiment: SYTOX Green cytotoxicity assay; assay type: cell-based
Experimental: Peptide variants of D-CONGA (SEQ ID NO: 1) were tested for activity against E. coli, K. pneumoniae, and S. aureus. Minimum Inhibitory Concentrations (MIC) were measured in 96-well plates by broth dilution. […] Following 1 hr. incubation, bacteria in growth media were added and the plates were incubated overnight at 37° C. Sterilized, wells were identified to determine MIC. […] The value for 100% hemolysis was established by treatment with the detergent Triton-X100. Toxicity was measured by incubating serially diluted peptide with WI38 human fibroblast cells in the presence of SYTOX Green, a DNA binding dye that reports on cell death by membrane permeabilization. The peptide concentration that gives 50% cytotoxicity by relative SYTOX Green fluorescence, is denoted EC50. WI-38 cells were grown to confluency in T-75 flasks in complete DMEM (with 15% FBS, plus antibiotics and non-essential amino acids). The day prior to cytotoxicity experiments, cells were trypsinized, removed from the flask, and pelleted. Cells were resuspended in complete DMEM and the cell count was obtained using a cell counter. The cells were then seeded at a density of 10,000 cells/well in a 96-well tissue-culture plate. […] To perform the cytotoxicity assay, media from wells of overnight cell culture plate was removed, washed once with PBS and treated with 50 μl of the peptide and SYTOX™ Green mixture. The plate was read for fluorescence, every 5 minutes, for an hour at the excitation wavelength of 385 nm and emission wavelength of 530 nm. MelP5, a potent MPP, that causes 100% SYTOX™ Green entry into the cells was used as a positive control to normalize the cytotoxicity of peptides tested. MIC values were reported in μM peptide against gram-negative E. coli (EC), P. aeruginosa (PA), and gram-positive S. aureus (SA). […] The column marked “EC 50” contains the concentration of peptide that kills 50% of WI-38 human fibroblast cells assayed by entry of SYTOX™ Green DNA binding dye.

E. coli = assay type: cell-based; settings: for MIC in Broth Dilution, E. coli, RBC −: absence of RBC; for MIC in Broth Dilution, E. coli, RBC − / MIC in Broth Dilution, E. coli, RBC +: Table 3; for MIC, E. coli, No RBC / MIC, E. coli, 10^9 cells/ml RBC: Table 2; for MIC in Broth Dilution, E. coli, RBC +: presence of 1×10^9 human RBC/ml; for MIC, E. coli, 10^9 cells/ml RBC: with 10^9 human RBC/ml
Experimental: as §1
(§3) Antimicrobial peptides and conventional antibiotics were prepared at 5-times the final concentration needed in 0.025% acetic acid. The antibiotics were serially diluted by a factor of 2:3 horizontally across 96-well plates from Corning, 25 μL per well. One column was reserved for controls. For the assays performed in the presence of RBC, type O+ human RBCs at 0 or 2.5×10^9 cells/mL were added in 50 μL aliquots to all wells. Following a 30-minute incubation, 50 μL of TSB, inoculated with 5×10^5 CFU/mL, was added to all wells, and plates were incubated overnight at 37° C. Following overnight incubation at 37° C., the OD600 was measured (values of less than 0.1 were considered sterilized). To assess bacterial growth in the assays with RBC, the OD600 was measured after a second day inoculation with 10 μL of solution from the original plate added to 100 μL of sterile TSB followed by overnight incubation.
as §2

K. pneumoniae = assay type: cell-based; settings: for MIC in Broth Dilution, K. Pneumoniae, RBC +: presence of 1×10^9 human RBC/ml; for MIC, K. pneumoniae, 10^9 cells/ml RBC: with 10^9 human RBC/ml
Experimental: as §1, §3, §2

S. aureus = assay type: cell-based; settings: for MIC in Broth Dilution, S. Aureus, RBC −: absence of RBC; for MIC in Broth Dilution, S. Aureus, RBC − / MIC in Broth Dilution, S. Aureus, RBC +: Table 3; for MIC, S. aureus, No RBC / MIC, S. aureus, 10^9 cells/ml RBC: Table 2; for MIC in Broth Dilution, S. Aureus, RBC +: presence of 1×10^9 human RBC/ml; for MIC, S. aureus, 10^9 cells/ml RBC: with 10^9 human RBC/ml
Experimental: as §1, §3, §2

[2] = system: Methicillin-resistant Staphylococcus aureus (SAP400); experiment: Broth dilution MIC against MRSA isolate; assay type: cell-based
[3] = system: Acinetobacter baumannii (PDR); experiment: Broth dilution MIC against pan drug-resistant A. baumannii isolate; assay type: cell-based; settings: isolate AB (PDR)
[4] = system: Pseudomonas aeruginosa (CF mucoid and non-mucoid); experiment: Broth dilution MIC against P. aeruginosa isolates from cystic fibrosis patients; assay type: cell-based
[5] = system: Klebsiella pneumoniae clinical isolates; settings: clinical isolates
[6] = 50% cytotoxicity by SYTOX Green, Table 2, read-out: EC50, μM (WI-38 Cells)
[7] = fractional hemolysis of 1×10^8 human RBC/ml at 100 μM peptide, Table 3
[8] = fractional hemolysis of human RBCs at 100 μM peptide, Table 2

Compound | Hemolysis at 100 μM (human RBCs) | MIC in Broth Dilution, E. coli, RBC − (E. coli) [µM] | MIC, E. coli, No RBC (E. coli) [µM] | MIC in Broth Dilution, E. coli, RBC + (E. coli) [µM] | MIC, E. coli, 10^9 cells/ml RBC (E. coli) [μM] | MIC in Broth Dilution, K. Pneumoniae, RBC + (K. pneumoniae; Table 3) [µM] | MIC, K. pneumoniae, 10^9 cells/ml RBC (K. pneumoniae; Table 2) [μM] | MIC in Broth Dilution, S. Aureus, RBC − (S. aureus) [µM] | MIC, S. aureus, No RBC (S. aureus) [µM] | MIC in Broth Dilution, S. Aureus, RBC + (S. aureus) [µM] | MIC, S. aureus, 10^9 cells/ml RBC (S. aureus) [μM] | EC50 [1, 6] [µM] | further results
CC(C)C[C@@H](NC(=O)CCNC(=O)[C@@H](CCCNC(=N)N)NC(=O)[C@@H](CCCNC(=N)N)NC(=O)[C@@H](C)NC(=O)[C@@H](Cc1c[nH]c2ccccc12)NC(=O)[C@@H](CCCNC(=N)N)NC(=O)[C@H](N)CCCNC(=N)N)C(=O)N[C@H](C)C(=O)N[C@H](Cc1ccccc1)C(=O)N[C@H](C)C(=O)N[C@H](Cc1ccccc1)C(=O)N[C@H](CCCNC(=N)N)C(=O)N[C@H](CCCNC(=N)N)C(N)=O [D-CONGA-βa7, rrwarr-βa-lafafrr (All D)] (H-[dR][dR][dW][dA][dR][dR][βAla][dL][dA][dF][dA][dF][dR][dR]-NH2) | 0.02 |  |  |  |  |  |  |  |  |  |  |  | Toxicity against WI-38 cells (in words) [1]: least toxic of the variants
rrwa (nor r, nor r)lafafrr [D-CONGA-NorR] |  | 1.9 | 1.9 | 2.4 | 2.4 | 11.8 | 12 | 7.6 | 7.6 | 17.2 | 17.2 | 66 | MIC in Broth Dilution, K. Pneumoniae, RBC − (K. pneumoniae; absence of RBC, Table 3): 13.3 µM; MIC, K. pneumoniae, No RBC (K. pneumoniae; no RBC, Table 2): 13 µM; EC50 ([1]; kills 50% of WI-38 cells, SYTOX Green entry, Table 3, read-out: EC50, μM (WI-38)): 66 µM
CC(C)C[C@@H]1NC(=O)[C@H](CCCNC(=N)N)NC(=O)[C@H](CCCNC(=N)N)NC(=O)[C@H](C)NC(=O)[C@H](Cc2c[nH]c3ccccc23)NC(=O)[C@H](CCCNC(=N)N)NC(=O)[C@H](CCCNC(=N)N)NC(=O)[C@H](CCCNC(=N)N)NC(=O)[C@H](CCCNC(=N)N)NC(=O)[C@H](Cc2ccccc2)NC(=O)[C@H](C)NC(=O)[C@H](Cc2ccccc2)NC(=O)[C@H](C)NC1=O [CYCLIZED-L-CONGA-OH] (cyclo(RRWARRLAFAFRR)) |  | 5.9 (≈ 10.3 µg/mL) | 5.9 (≈ 10.3 µg/mL) | 13.3 | 13.3 | 6 |  | 20 (≈ 34.9 µg/mL) | 20 (≈ 34.9 µg/mL) |  |  |  | Hemolysis at 100 μM (human RBCs; [7]): 0.7; Hemolysis at 100 μM (human RBCs; [8]): 0.7
CC(C)C[C@@H]1NC(=O)[C@H](CCCNC(=N)N)NC(=O)[C@H](CCCNC(=N)N)NC(=O)[C@H](C)NC(=O)[C@H](Cc2c[nH]c3ccccc23)NC(=O)[C@H](CCCNC(=N)N)NC(=O)[C@H](CCCNC(=N)N)NC(=O)CC[C@@H](C(N)=O)NC(=O)[C@H](CCCNC(=N)N)NC(=O)[C@H](CCCNC(=N)N)NC(=O)[C@H](Cc2ccccc2)NC(=O)[C@H](C)NC(=O)[C@H](Cc2ccccc2)NC(=O)[C@H](C)NC1=O [CYCLIZED-L-CONGA-E] (RRWARRLAFAFRRE-NH2; lactam N-14) |  | 22.9 (≈ 42.9 µg/mL) | 24 (≈ 44.9 µg/mL) | >30 | 30 | >30 |  | >30 | 30 (≈ 56.2 µg/mL) |  |  |  | Hemolysis at 100 μM (human RBCs; [7]): 0.03; Hemolysis at 100 μM (human RBCs; [8]): 0.03
CC(C)C[C@@H](NC(=O)[C@@H](CCCNC(=N)N)NC(=O)[C@@H](CCCNC(=N)N)NC(=O)[C@@H](C)NC(=O)[C@@H](Cc1c[nH]c2ccccc12)NC(=O)[C@@H](CCCNC(=N)N)NC(=O)[C@H](N)CCCNC(=N)N)C(=O)N[C@H](C)C(=O)N[C@H](Cc1ccccc1)C(=O)N[C@H](C)C(=O)N[C@H](Cc1ccccc1)C(=O)N[C@H](CCCNC(=N)N)C(=O)N[C@H](CCCNC(=N)N)C(N)=O [D-CONGA, rrwarrlafafrr (All D), reference compound] (H-[dR][dR][dW][dA][dR][dR][dL][dA][dF][dA][dF][dR][dR]-NH2) | 0.06 |  | 1.0 (≈ 1.76 µg/mL) |  | 0.8 |  | 3.8 | 5.7 (≈ 10 µg/mL) | 5.7 (≈ 10 µg/mL) | 6.3 | 6.3 | 110 | 
CC1(C)S[C@@H]2[C@H](NC(=O)[C@H](N)c3ccccc3)C(=O)N2[C@H]1C(=O)O [AMP, Ampicillin] |  |  |  |  |  |  |  |  |  |  |  |  | MIC [2]: >150 µM; MIC [3]: >150 µM; MIC ([4]; isolate PA (mucoid)): >150 µM; MIC ([4]; isolate PA (non-mucoid)): >150 µM
CC(C)C[C@@H](NC(=O)[C@@H](CCC(N)=O)NC(=O)[C@@H](CCCNC(=N)N)NC(=O)[C@@H](CCCNC(=N)N)NC(=O)[C@@H](C)NC(=O)[C@@H](Cc1c[nH]c2ccccc12)NC(=O)[C@@H](CCCNC(=N)N)NC(=O)[C@H](N)CCCNC(=N)N)C(=O)N[C@H](C)C(=O)N[C@H](Cc1ccccc1)C(=O)N[C@H](C)C(=O)N[C@H](Cc1ccccc1)C(=O)N[C@H](CCCNC(=N)N)C(=O)N[C@H](CCCNC(=N)N)C(N)=O [D-CONGA-Q7, rrwarrqlafafrr (All D)] (H-[dR][dR][dW][dA][dR][dR][dQ][dL][dA][dF][dA][dF][dR][dR]-NH2) | 0.07 | 1 (≈ 1.89 µg/mL) | 1 (≈ 1.89 µg/mL) | 1.7 | 1.7 |  | 1.5 | 4.2 (≈ 7.93 µg/mL) | 4.2 (≈ 7.93 µg/mL) | 3.6 | 3.6 | 418 | EC50 against WI-38 cells relative to that of D-CONGA [1]: four times higher; Toxicity against WI-38 cells (in words) [1]: lower cytotoxicity; MIC [5]: 1.8 µM (≈ 3.4 µg/mL)
